Eight compounds from patent publication US9107408B2, “Plant disease controlling composition and method for controlling plant disease” (SUMITOMO CHEMICAL COMPANY, LIMITED, priority 2010, dated 2015) can be followed below.

Like-named read-outs stand apart in the source and are kept apart here.

For this test, the system named is gray mold fungus (Botrytis cinerea). Description: Cucumber leaf disk preventive test against gray mold fungus. The format is in vivo. To be noted: for pest or weed control at 0.5 ppm / pest or weed control at 5 ppm: Botrytis cinerea, foliar, 96 h, read-out: preventive value (%). The protocol:
True leaf of cucumber is punched out with cork borer to 13 mm in diameter to prepare a leaf disk. In 24 well microwell plate that is dispensed with 1 ml 0.8% water agar, the leaf disk is placed such that the upper side of the leaf is in an upward direction. Thereto is added 20 micro liter a testing solution prepared by mixing a dimethyl sulfoxide solution of the present compound (racemate) and a dimethyl sulfoxide solution of tebuconazole to a predetermined concentration to treat the leaf disk.
After confirming that the testing medical solution is dried, conidium of gray mold fungus (Botrytis cinerea) is suspended into potato dextrose broth (DIFCO) in a density of about 10^5 conidium/mL and is then subjected to a spray inoculation. After leaving to stand the leaf disk in a growth chamber set up at 15° C. for four days, an onset area on the leaf is measured and then calculated an onset area rate (hereinafter, referred to as an onset area rate of treated group).
The same operation is carried out with 20 micro liter water instead of 20 micro liter a testing medicine solution to calculate an onset area rate (hereinafter, referred to an onset area rate of non-treated group).
A preventive value is calculated from the above onset area rate of treated group and the onset area rate of non-treated group by the following equation: Preventive value (%)=100×(A−B)/A
A: an onset area rate of treated group
B: an onset area rate of non-treated group
The same operations as described in Test Example 1 are carried out with triadimenol, bitertanol, oxpoconazole fumarate, cyazofamid, pefurazoate, triflumizole, or hymexazol instead of tebuconazole, so as to calculate respective preventive values.
Also for comparison, the same operations as described in Test Example 1 are carried out with the exception that the testing medicine solution is substituted with a predetermined concentration of each dimethyl sulfoxide solution of the present compound (racemate), triadimenol, bitertanol, oxpoconazole fumarate, cyazofamid, pefurazoate, triflumizole, or hymexazol, so as to calculate respective preventive values.
For comparison, the same operations as described in Test Example 1 are carried out with the exception that the testing medicine solution is substituted with a predetermined concentration of a dimethyl sulfoxide solution of tebuconazole, so as to calculate a preventive value.

[1] abbreviates: azole compound alone 0.5 ppm, cucumber leaf disk, 15° C., four days.
[2] abbreviates: azole compound alone 5.0 ppm, cucumber leaf disk, 15° C., four days.

As for `CC(C)(C)C(O)C(Oc1ccc(-c2ccccc2)cc1)n1cncn1` (stereo not shown) [bitertanol], the pest or weed control at 0.5 ppm under setting [1] was found to be 45%. Also, the pest or weed control at 5 ppm under setting [2] came to 56%.
The like results for `Cc1ccc(-c2c(Cl)nc(C#N)n2S(=O)(=O)N(C)C)cc1` [cyazofamid] were, in that order, 10% and 15%.
The corresponding values for `Cc1cc(O)no1` [hymexazol] are 5% and 10%.
As for `CC1(C)COC(C)(CCCc2ccc(Cl)cc2)N1C(=O)n1ccnc1.CC1(C)COC(C)(CCCc2ccc(Cl)cc2)N1C(=O)n1ccnc1.O=C(O)/C=C/C(=O)O` (stereo not shown) [oxpoconazole fumarate], the “preventive value (%)” value was found to be 49% under setting [1] and 59% under setting [2].
On to `C=CCCCOC(=O)C(CC)N(Cc1ccco1)C(=O)n1ccnc1` (stereo not shown) [pefurazoate], for which the pest or weed control at 0.5 ppm amounted to 44% and the pest or weed control at 5 ppm stood at 53%.
Turning to `CC(C)(C)C(O)(CCc1ccc(Cl)cc1)Cn1cncn1` (stereo not shown) [tebuconazole], the pest or weed control at 0.5 ppm under setting [1] was found to be 40%. Besides, the pest or weed control at 5 ppm under setting [2] is 54%.
The like results for `CC(C)(C)C(O)C(Oc1ccc(Cl)cc1)n1cncn1` (stereo not shown) [triadimenol] were, in that order, 45% and 58%.
The like results for `CCCOC/C(=N\c1ccc(Cl)cc1C(F)(F)F)n1ccnc1` [triflumizole] were, in that order, 44% and 57%.
